± gives the expanded uncertainty stated by the source.
Details: 283.14 K, Liquid, Vibrating tube method

FC(C(F)(F)F)C(F)(F)F [1,1,1,2,3,3,3-heptafluoropropane]
Details | mass density [kg/m3]
13521 kPa | 1512.6 ± 1.6
13550 kPa | 1512.5 ± 1.6
13594 kPa | 1512.8 ± 1.6
13629 kPa | 1513 ± 1.6
13672 kPa | 1513.2 ± 1.6
13707 kPa | 1513.2 ± 1.6
13754 kPa | 1513.5 ± 1.6
13783 kPa | 1513.6 ± 1.6
13814 kPa | 1513.7 ± 1.6
13848 kPa | 1513.7 ± 1.6
13878 kPa | 1513.9 ± 1.6
13913 kPa | 1514.1 ± 1.6
13943 kPa | 1514.1 ± 1.6
13983 kPa | 1514.3 ± 1.6
14013 kPa | 1514.5 ± 1.6
14057 kPa | 1514.7 ± 1.6
14086 kPa | 1514.9 ± 1.6
14121 kPa | 1514.9 ± 1.6
14157 kPa | 1515.1 ± 1.6
14187 kPa | 1515.1 ± 1.6
14217 kPa | 1515.2 ± 1.6
14261 kPa | 1515.5 ± 1.6
14304 kPa | 1515.6 ± 1.6
14343 kPa | 1515.8 ± 1.6
14377 kPa | 1515.8 ± 1.6
14406 kPa | 1516.1 ± 1.6
14435 kPa | 1516.1 ± 1.6
14464 kPa | 1516.2 ± 1.6
14504 kPa | 1516.4 ± 1.6
14534 kPa | 1516.3 ± 1.6
14580 kPa | 1516.6 ± 1.6
15750 kPa | 1521.1 ± 1.6
15778 kPa | 1521.3 ± 1.6
15811 kPa | 1521.3 ± 1.6
15838 kPa | 1521.3 ± 1.6
15867 kPa | 1521.5 ± 1.6
15896 kPa | 1521.5 ± 1.6
15929 kPa | 1521.8 ± 1.6
15966 kPa | 1521.9 ± 1.6
15994 kPa | 1521.8 ± 1.6
16031 kPa | 1522 ± 1.6
16054 kPa | 1522.2 ± 1.6
16198 kPa | 1522.7 ± 1.6
16235 kPa | 1522.8 ± 1.6
16269 kPa | 1522.9 ± 1.6
16306 kPa | 1523.1 ± 1.6
16339 kPa | 1523.3 ± 1.6
16372 kPa | 1523.4 ± 1.6
16405 kPa | 1523.5 ± 1.6
16433 kPa | 1523.7 ± 1.6
16471 kPa | 1523.7 ± 1.6
16499 kPa | 1523.9 ± 1.6
16541 kPa | 1523.9 ± 1.6
16574 kPa | 1524.1 ± 1.6
16649 kPa | 1524.3 ± 1.6
16739 kPa | 1524.6 ± 1.6
16776 kPa | 1524.8 ± 1.6
16803 kPa | 1525 ± 1.6
16836 kPa | 1525 ± 1.6
16864 kPa | 1525.1 ± 1.6
16892 kPa | 1525.2 ± 1.6
16935 kPa | 1525.3 ± 1.6
16967 kPa | 1525.6 ± 1.6
17015 kPa | 1525.7 ± 1.6
17055 kPa | 1525.8 ± 1.6
17079 kPa | 1525.9 ± 1.6
17116 kPa | 1526 ± 1.6
17145 kPa | 1526.1 ± 1.6
17173 kPa | 1526.2 ± 1.6
17206 kPa | 1526.4 ± 1.6
17248 kPa | 1526.5 ± 1.6
17271 kPa | 1526.5 ± 1.6
17304 kPa | 1526.7 ± 1.6
17332 kPa | 1526.8 ± 1.6
17370 kPa | 1527 ± 1.6
17413 kPa | 1527.2 ± 1.6
17622 kPa | 1527.9 ± 1.6
17656 kPa | 1528.1 ± 1.6
17691 kPa | 1528.1 ± 1.6
17729 kPa | 1528.3 ± 1.6
17758 kPa | 1528.4 ± 1.6
17786 kPa | 1528.5 ± 1.6
17820 kPa | 1528.6 ± 1.6
17850 kPa | 1528.6 ± 1.6
17893 kPa | 1528.8 ± 1.6
17922 kPa | 1529 ± 1.6
17961 kPa | 1529 ± 1.6
18006 kPa | 1529.3 ± 1.6
18060 kPa | 1529.4 ± 1.6
18090 kPa | 1529.5 ± 1.6
18129 kPa | 1529.6 ± 1.6
18164 kPa | 1529.7 ± 1.6
18194 kPa | 1529.9 ± 1.6
18233 kPa | 1530 ± 1.6
18274 kPa | 1530 ± 1.6
18312 kPa | 1530.2 ± 1.6
18389 kPa | 1530.5 ± 1.6
18616 kPa | 1531.3 ± 1.6
18645 kPa | 1531.6 ± 1.6
18675 kPa | 1531.4 ± 1.6
18719 kPa | 1531.7 ± 1.6
18754 kPa | 1531.8 ± 1.6
18793 kPa | 1531.9 ± 1.6
18821 kPa | 1532 ± 1.6
18862 kPa | 1532.3 ± 1.6
18911 kPa | 1532.4 ± 1.6
18933 kPa | 1532.4 ± 1.6
18973 kPa | 1532.7 ± 1.6
19007 kPa | 1532.6 ± 1.6
19042 kPa | 1532.7 ± 1.6
19087 kPa | 1533 ± 1.6
19118 kPa | 1533.1 ± 1.6
19150 kPa | 1533.1 ± 1.6
19177 kPa | 1533.3 ± 1.6
19213 kPa | 1533.4 ± 1.6
19240 kPa | 1533.5 ± 1.6
19277 kPa | 1533.6 ± 1.6
19309 kPa | 1533.7 ± 1.6
19337 kPa | 1533.9 ± 1.6
19373 kPa | 1534 ± 1.6
19406 kPa | 1534.1 ± 1.6
20075 kPa | 1536.4 ± 1.6
20104 kPa | 1536.4 ± 1.6
20142 kPa | 1536.6 ± 1.6
20175 kPa | 1536.7 ± 1.6
20372 kPa | 1537.3 ± 1.6
20424 kPa | 1537.4 ± 1.6
20453 kPa | 1537.6 ± 1.6
22509 kPa | 1544.4 ± 1.7
22609 kPa | 1544.6 ± 1.7
22639 kPa | 1544.7 ± 1.7
22675 kPa | 1545 ± 1.7
22904 kPa | 1545.6 ± 1.7
22939 kPa | 1545.7 ± 1.7
23014 kPa | 1546 ± 1.7
23096 kPa | 1546.2 ± 1.7
23454 kPa | 1547.3 ± 1.7
23496 kPa | 1547.4 ± 1.7
23531 kPa | 1547.5 ± 1.7
23562 kPa | 1547.6 ± 1.7
23603 kPa | 1547.8 ± 1.7
23638 kPa | 1548 ± 1.7
23709 kPa | 1548.1 ± 1.7
23828 kPa | 1548.6 ± 1.7
23869 kPa | 1548.8 ± 1.7
23896 kPa | 1548.7 ± 1.7
23944 kPa | 1548.9 ± 1.7
23985 kPa | 1548.9 ± 1.7
24017 kPa | 1549.2 ± 1.7
24350 kPa | 1550.1 ± 1.7
24387 kPa | 1550.2 ± 1.7
24422 kPa | 1550.4 ± 1.7
24459 kPa | 1550.4 ± 1.7
24490 kPa | 1550.5 ± 1.7
24532 kPa | 1550.8 ± 1.7
24572 kPa | 1550.8 ± 1.7
25104 kPa | 1552.3 ± 1.7
25136 kPa | 1552.5 ± 1.7
25173 kPa | 1552.8 ± 1.7
25209 kPa | 1552.7 ± 1.7
25250 kPa | 1553 ± 1.7
25282 kPa | 1552.9 ± 1.7
25327 kPa | 1553.2 ± 1.7
25365 kPa | 1553.4 ± 1.7
25402 kPa | 1553.3 ± 1.7
25434 kPa | 1553.5 ± 1.7
25476 kPa | 1553.6 ± 1.7
25550 kPa | 1553.9 ± 1.7
25673 kPa | 1554.3 ± 1.7
25766 kPa | 1554.5 ± 1.7
25800 kPa | 1554.6 ± 1.7
25832 kPa | 1554.7 ± 1.7
25913 kPa | 1554.9 ± 1.7
26847 kPa | 1557.6 ± 1.7
27304 kPa | 1559.1 ± 1.7
27346 kPa | 1559.3 ± 1.7
27389 kPa | 1559.3 ± 1.7
27418 kPa | 1559.4 ± 1.7
27466 kPa | 1559.4 ± 1.7
27495 kPa | 1559.6 ± 1.7
27777 kPa | 1560.4 ± 1.7
28197 kPa | 1561.7 ± 1.7
28230 kPa | 1561.8 ± 1.7
28264 kPa | 1561.8 ± 1.7
28306 kPa | 1562.1 ± 1.7
28335 kPa | 1562.1 ± 1.7
28371 kPa | 1562 ± 1.7
28399 kPa | 1562.2 ± 1.7
28437 kPa | 1562.3 ± 1.7
28909 kPa | 1563.6 ± 1.7
28942 kPa | 1563.9 ± 1.7
28978 kPa | 1564 ± 1.7
29016 kPa | 1564.1 ± 1.7
29044 kPa | 1564.1 ± 1.7
29121 kPa | 1564.3 ± 1.7
29155 kPa | 1564.3 ± 1.7
29185 kPa | 1564.4 ± 1.7
29223 kPa | 1564.5 ± 1.7
29257 kPa | 1564.7 ± 1.7
29291 kPa | 1564.7 ± 1.7
29319 kPa | 1564.9 ± 1.7
29391 kPa | 1565 ± 1.7
29500 kPa | 1565.3 ± 1.7
29534 kPa | 1565.4 ± 1.7
30122 kPa | 1567.2 ± 1.8

From the NIST ThermoML archive (doi:10.1021/je700260f)
